How the values were obtained:
[1] = test system: IFNα stimulated Kit225 T cells (STAT-dependent luciferase reporter); assay: Kit225 T cell assay, IFNα-stimulated STAT-dependent luciferase reporter; type: cell-based, human; settings: 200 U/mL human recombinant IFNα, 5-6 hours; read-out: IFNα Kit225 Reporter (IC50)
In short: (§1)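 Kit225 T cells carrying a stable STAT-dependent luciferase reporter, stimulated 5-6 h with 20 ng/mL human IL-23 or 200 U/mL human IFNα. Luminescence read out; % inhibition derived against unstimulated (100%) and no-inhibitor (0%) controls.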

[2] = target: His-tagged protein corresponding to amino acids 575-869 of human Tyk2 (Homo sapiens (Human), UniProt P29597); assay: Probe displacement assay (scintillation proximity, radiolabeled probe); type: binding; settings: 2.5 nM Tyk2 (575-869), 40 nM [3H] probe, 30 minutes at room temperature
His-tagged protein corresponding to amino acids 575-869 of human Tyk2, sequence (P29597 other isoform, or with tags, fused parts or gaps): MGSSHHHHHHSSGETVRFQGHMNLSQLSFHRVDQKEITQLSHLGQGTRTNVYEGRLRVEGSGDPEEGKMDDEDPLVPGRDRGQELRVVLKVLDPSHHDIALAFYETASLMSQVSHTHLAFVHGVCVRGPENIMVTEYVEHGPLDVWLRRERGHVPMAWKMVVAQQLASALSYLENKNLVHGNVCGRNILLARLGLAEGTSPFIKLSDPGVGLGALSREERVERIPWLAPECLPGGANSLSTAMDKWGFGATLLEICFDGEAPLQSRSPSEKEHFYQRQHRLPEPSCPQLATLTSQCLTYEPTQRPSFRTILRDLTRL
Experimental: The probe displacement assay is conducted as follows: In a […], test compounds along with recombinantly expressed His-tagged protein corresponding to amino acids 575-869 of human Tyk2 (sequence shown below) at 2.5 nM, 40 nM ((R)—N-(1-(3-(8-methyl-5-(methylamino)-8H-imidazo[4,5-d]thiazolo[5,4-b]pyridin-2-yl)phenyl)ethyl)-2-([^3H]methylsulfonyl)benzamide) (preparation described below) and 80 μg/mL Copper His-Tag scintillation proximity assay beads (Perkin Elmer, Catalog #RPNQ0095) in 50 mM HEPES, pH 7.5, containing 100 μg/mL bovine serum albumin and 5% DMSO were incubated for 30 minutes at room temperature.
Protein Sequence of recombinant Hig-tagged Tyk2 (575-869):
The preparation of radiolabeled probe, (R)—N-(1-(3-(8-methyl-5-(methylamino)-8H-imidazo[4,5-d]thiazolo[5,4-b]pyridin-2-yl)phenyl)ethyl)-2-([^3H]methylsulfonyl)benzamide, was performed as described below.

[3] = test system: IL-23 stimulated Kit225 T cells (STAT-dependent luciferase reporter); assay: Kit225 T cell assay, IL-23-stimulated STAT-dependent luciferase reporter; type: cell-based, human; settings: 20 ng/mL human recombinant IL-23, 5-6 hours; read-out: IL-23 Kit225 Reporter (IC50)
In short: as §1

Compound	IC50 [1]	EC50 [2]	IC50 [3]
CNC(=O)c1nnc(NC(=O)C2CC2)cc1Nc1cccc(-c2ccc(C)nn2)c1OC [Example 69]	0.16 µM	0.07 µM	0.38 µM
CCNC(=O)c1nnc(Nc2ccc(F)cn2)cc1Nc1ccccc1S(C)(=O)=O [Example 4]	1.15 µM	0.13 µM	2.3 µM
CNC(=O)c1nnc(Nc2cc(C)n(C)n2)cc1Nc1cccc(-c2cnn(C)c2)c1OC [Example 85]	0.05 µM	0.00736 µM	0.17 µM
CNC(=O)c1nnc(NC(=O)C2CC2)cc1Nc1cccc(-c2nnn(C)n2)c1OC [Example 146]	0.00533 µM	0.0017 µM	0.01 µM
CNC(=O)c1nnc(NC(=O)C2CC2)cc1Nc1cccc(-c2cc(C)no2)c1OC [Example 194]	0.41 µM	0.08 µM	0.63 µM
CNC(=O)c1nnc(Nc2cc(C(C)O)ccn2)cc1Nc1cccc(-c2ncn(C)n2)c1OC (stereo not drawn) [Example 84]	0.00939 µM	0.00128 µM	0.02 µM
CNC(=O)c1nnc(Nc2ccc(CO)cn2)cc1Nc1cccc(-c2ncn(C)n2)c1OC [Example 102]	0.03 µM	0.00159 µM	0.04 µM
CNC(=O)c1nnc(NC(=O)C2CC2)cc1Nc1cccc(-c2cnc(C)s2)c1OC [Example 160]	0.31 µM	0.07 µM	0.41 µM
CNC(=O)c1nnc(Nc2cc(NC(=O)C3CC3)nc(C)n2)cc1Nc1cccc(-c2ncn(C)n2)c1OC [Example 134]	0.01 µM	0.00564 µM	0.03 µM
CNC(=O)c1nnc(NC(=O)C2CC2)cc1Nc1cccc(-c2cnn(CCF)c2)c1OC [Example 186]	0.08 µM	0.06 µM	0.17 µM
CNC(=O)c1nnc(NC(=O)C2CC2)cc1Nc1cccc(-c2ncn(CC(F)F)n2)c1OC [Example 176]	0.02 µM	0.00635 µM	0.04 µM
CS(=O)(=O)c1ccccc1Nc1cc(Nc2ccc(F)cn2)nnc1C(=O)NC1CC1 [Example 5]	6.36 µM	0.41 µM	12.5 µM

Continued, values first:

IC50 [1]	EC50 [2]	IC50 [3]	Compound
0.03 µM	0.00713 µM	0.03 µM	CNC(=O)c1nnc(Nc2ccccn2)cc1Nc1cccc(-c2nnc(C)s2)c1OC [Example 155]
0.43 µM	0.09 µM	0.59 µM	CNC(=O)c1nnc(NC(=O)C2CC2)cc1Nc1cccc(-c2nnc(C)s2)c1OC [Example 154]
0.00349 µM	0.00617 µM	0.00199 µM	CNC(=O)c1nnc(Nc2ccccn2)cc1Nc1cccc(-c2ncn(C)n2)c1OC [Example 76]
0.00372 µM	0.00194 µM	0.00749 µM	CNC(=O)c1nnc(Nc2cnccn2)cc1Nc1cccc(-c2ncccn2)c1OC [Example 112]
0.00442 µM	0.000877 µM	0.00101 µM	CNC(=O)c1nnc(Nc2ccccn2)cc1Nc1cccc(-c2nnn(C)n2)c1OC [Example 147]
0.05 µM	0.00521 µM	0.08 µM	CNC(=O)c1nnc(Nc2ccccn2)cc1Nc1cccc(-c2nc(C)cs2)c1OC [Example 73]
